Reference: patent US8119998B2, “Methods and systems for in situ physicochemical property testing” (Pion, Inc., priority 2008, dated 2012)
Converted amounts (≈) assume the structure as drawn.

Assay: Miniaturized rotating disk dissolution and solubility of pressed pellet, biexponential fit
Type: physicochemical
Details: pressed pellet 3.9 mm, five replicate profiles, 180 selected points, FIG. 12
Protocol: This example is based on the dissolution and solubility characteristics of the model drug carbamazepine, with data collected on a prototype instrument, utilizing a miniaturized rotating disk of pressed compound held as a pellet in a small stainless steel die. The average diameter of the pellets of material was measured to be 3.9 mm, corresponding to a nominal area of 0.12 cm^2, and the minimal amount of compound needed to make such pellets was about 5 mg, although more may be used. In this example, the solution volume was 15 mL, larger than the preferred volume of 3 mL. Over 1100 concentration measurements were acquired, in five replicate dissolution profiles. […] The powder “burst” would be associated with a high surface area, but would be limited to a small quantity of material: [formula] […] 2 with respect to time, evaluated at t=to, in the units of μg/min (with PABL in cm/s units), is DR^max=(Cpowder·Apowder+[…]·60 [3] The factor of 60 accounts for the conversion of ABL permeability into cm/min units. Intrinsic dissolution rate (IDR) is calculated as IDR=DR^max/Aeff, where Aeff is the effective area of the solid phase in contact with bulk solution. The effective surface area is defined as Aeff=δApowder+(1-δ)[…], where δ=[…]). The IDR is the maximum flux of material entering the solution phase through the interface solid-liquid interface (often evaluated at time near zero). […]

IDR (intrinsic dissolution rate) (nominal area 0.12 cm^2, 15 mL): 25±1 μg/cm^2·min
solubility (thermodynamic from solid, 15 mL, read-out: S (solubility)): 225 ± 6 µg/mL (≈ 952 µM)
Compound: NC(=O)N1c2ccccc2C=Cc2ccccc21 [carbamazepine]
